The values below come from article PMC8397291 (2021).

In test [1] the test system is c-MYC Pu22 (DNA, G4) TGAGGGTGGGTAGGGTGGGTAA
As to the kind of experiment: UV-vis and fluorescence titration. Particulars: 100 mM KCl; 50 mM Tris pH 7.5, 25 °C; 1.5-3.0 μM compound, up to 5.0 eq. DNA.

Test [2] relates to Tel-22 (DNA, G4) AGGGTTAGGGTTAGGGTTAGGG
As to the kind of experiment: UV-vis and fluorescence titration. Conditions: 100 mM KCl; 50 mM Tris pH 7.5, 25 °C; 1.5-3.0 μM compound, up to 5.0 eq. DNA.

Test [3] has as its system TBA (DNA, G4) GGTTGGTGTGGTTGG
As to the kind of experiment: UV-vis and fluorescence titration. Conditions: 100 mM KCl; 50 mM Tris pH 7.5, 25 °C; 1.5-3.0 μM compound, up to 5.0 eq. DNA.

Test [4] concerns c-MYC Pu22 (DNA, G4) TGAGGGTGGGTAGGGTGGGTAA
As to the kind of experiment: fluorescence titration, 1:1 global fit (Bindfit). Conditions: 100 mM KCl; 50 mM Tris pH 7.5, 25 °C, 0.6% DMSO; 1.5 μM compound.

Test [5] has as its system c-KIT 2 (DNA, G4) CCCGGGCGGGCGCGAGGGAGGGGAGG
As to the kind of experiment: fluorescence titration, 1:1 global fit (Bindfit). Conditions: 100 mM KCl; 50 mM Tris pH 7.5, 25 °C, 0.6% DMSO; 1.5 μM compound.

Test [6] has as its system VAV-1 (DNA, G4) GGGCAGGGAGGGAACTGGG
Briefly: fluorescence titration, 1:1 global fit (Bindfit). Particulars: 100 mM KCl; 50 mM Tris pH 7.5, 25 °C, 0.6% DMSO; 1.5 μM compound.

The test system of test [7] is BCL-2 (DNA, G4) GGGCGCGGGAGGGAATTGGCGGGG
Briefly: fluorescence titration, 1:1 global fit (Bindfit). Particulars: 100 mM KCl; 50 mM Tris pH 7.5, 25 °C, 0.6% DMSO; 1.5 μM compound.

Test [8] concerns Tel-22 (DNA, G4) AGGGTTAGGGTTAGGGTTAGGG
As to the kind of experiment: fluorescence titration, 1:1 global fit (Bindfit). Conditions: 100 mM KCl; 50 mM Tris pH 7.5, 25 °C, 0.6% DMSO; 1.5 μM compound.

Test [9] deals with c-MYC Pu22 (DNA, G4) TGAGGGTGGGTAGGGTGGGTAA
Briefly: fluorescence displacement of 2a. Conditions: tracer 2a displaced.

In test [10] the test system is c-MYC Pu24T (DNA, G4) TGAGGGTGGTGAGGGTGGGGAAGG
Briefly: 1D 1H NMR titration, imino shifts. Conditions: 10 mM potassium phosphate, 35 mM KCl; pH 7.4, 298 K; 90 μM DNA, up to 5 eq. 2a.

In test [11] the test system is c-MYC sG4 (DNA, G4) GGGTGGGTAGGGTGGG
Briefly: fluorescence titration, 1:1 global fit (Bindfit). Particulars: 100 mM KCl; 50 mM Tris pH 7.5, 25 °C, 0.6% DMSO; 1.5 μM compound.

On to `N=C(N)c1cc2ccc(O)cc2oc1=O`, for which the binding entry in [1], in test [2] and in [3] was “no” each time.
On to `N=C(N)c1cc2cc3c4c(c2oc1=O)CCCN4CCC3`, for which the equilibrium dissociation constant (Kd) in [4] was 0.3 µM; in test [5], 0.7 µM; in test [6], 0.3 µM; in test [7], 0.5 µM; in [8], 3.8 µM.
For `C[n+]1cc(NC(=O)c2ccc3ccc4ccc(C(=O)Nc5cc6ccccc6[n+](C)c5)nc4c3n2)cc2ccccc21`, the binding result in [9] is recorded as “yes”.
For the molecule `CCN(CC)c1ccc2cc(C(=N)N)c(=O)oc2c1`, the binding result in [10] is listed as “yes”. The dissociation constant (Kd) in test [4] turned out to be 13.0 µM; in test [5], 9.1 µM; in [6], 15.0 µM; in [7] it was 14.6 µM; in test [8], 45.2 µM; in [11], 12.6 µM.

Usually Kd stands for a measure of binding affinity in units of concentration. Lower therefore signals tighter binding.
